According to ChEMBL document CHEMBL5325440, “Design, synthesis, and anti-inflammatory activity characterization of novel brain-permeable HDAC6 inhibitors” (Eur J Med Chem, 2023):

Experiments:
[1] = Ratio of drug concentration in brain to plasma of C57BL/6 mouse plasma at 1 mg/kg, ip measured after 3 hrs by LC-MS/MS analysis; type: ADME, organism-based; conditions: read-out: BPR
[2] = Drug concentration in C57BL/6 mouse brain at 1 mg/kg, ip measured after 3 hrs by LC-MS/MS analysis; type: ADME, organism-based; conditions: read-out: Ct
Histone deacetylase 4 = Histone deacetylase 4 (Homo sapiens, UniProt P56524); assay: Inhibition of HDAC4 (unknown origin)
Histone deacetylase 4, sequence (P56524 whole entry): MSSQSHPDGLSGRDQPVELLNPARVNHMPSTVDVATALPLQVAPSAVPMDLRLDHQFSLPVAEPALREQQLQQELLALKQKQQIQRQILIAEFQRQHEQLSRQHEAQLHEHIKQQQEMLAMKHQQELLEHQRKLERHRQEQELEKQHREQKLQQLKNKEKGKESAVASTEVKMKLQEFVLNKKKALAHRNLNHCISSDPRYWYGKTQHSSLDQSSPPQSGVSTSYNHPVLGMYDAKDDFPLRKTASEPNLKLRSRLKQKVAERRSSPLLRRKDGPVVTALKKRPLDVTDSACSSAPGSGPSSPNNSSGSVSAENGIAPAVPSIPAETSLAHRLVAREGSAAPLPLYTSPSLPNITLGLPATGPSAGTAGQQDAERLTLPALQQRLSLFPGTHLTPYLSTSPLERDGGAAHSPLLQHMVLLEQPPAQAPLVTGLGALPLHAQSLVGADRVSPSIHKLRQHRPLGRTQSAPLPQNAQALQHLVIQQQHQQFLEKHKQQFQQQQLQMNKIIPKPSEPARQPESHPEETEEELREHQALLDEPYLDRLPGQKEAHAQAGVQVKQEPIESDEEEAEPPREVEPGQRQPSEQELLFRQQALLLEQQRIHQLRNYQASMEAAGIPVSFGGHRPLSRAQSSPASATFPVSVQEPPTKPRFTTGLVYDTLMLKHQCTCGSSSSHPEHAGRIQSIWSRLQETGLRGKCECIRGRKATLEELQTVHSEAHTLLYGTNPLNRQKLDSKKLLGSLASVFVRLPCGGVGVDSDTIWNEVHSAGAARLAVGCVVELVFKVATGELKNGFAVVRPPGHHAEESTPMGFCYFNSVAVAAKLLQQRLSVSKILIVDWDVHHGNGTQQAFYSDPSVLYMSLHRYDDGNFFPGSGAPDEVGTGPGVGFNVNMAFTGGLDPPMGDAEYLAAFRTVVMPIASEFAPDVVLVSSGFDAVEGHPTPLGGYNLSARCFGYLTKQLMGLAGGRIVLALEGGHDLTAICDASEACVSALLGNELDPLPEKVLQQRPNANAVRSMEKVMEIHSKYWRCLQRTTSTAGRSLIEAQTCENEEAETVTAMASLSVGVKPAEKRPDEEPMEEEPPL

BV-2 = assay: Cytotoxicity against mouse BV-2 cells at 500 to 1000 nM incubated overnight in presence of LPS by LDH assay; type: toxicity, cell-based; conditions: bv-2, 1 µM, dose 500-1000 nM
[3] = Drug concentration in C57BL/6 mouse plasma at 1 mg/kg, ip measured after 1 hr by LC-MS/MS analysis; type: ADME, organism-based
Histone deacetylase 5 = Histone deacetylase 5 (Homo sapiens, UniProt Q9UQL6); assay: Inhibition of HDAC5 (unknown origin)
Histone deacetylase 5, sequence (Q9UQL6 whole entry): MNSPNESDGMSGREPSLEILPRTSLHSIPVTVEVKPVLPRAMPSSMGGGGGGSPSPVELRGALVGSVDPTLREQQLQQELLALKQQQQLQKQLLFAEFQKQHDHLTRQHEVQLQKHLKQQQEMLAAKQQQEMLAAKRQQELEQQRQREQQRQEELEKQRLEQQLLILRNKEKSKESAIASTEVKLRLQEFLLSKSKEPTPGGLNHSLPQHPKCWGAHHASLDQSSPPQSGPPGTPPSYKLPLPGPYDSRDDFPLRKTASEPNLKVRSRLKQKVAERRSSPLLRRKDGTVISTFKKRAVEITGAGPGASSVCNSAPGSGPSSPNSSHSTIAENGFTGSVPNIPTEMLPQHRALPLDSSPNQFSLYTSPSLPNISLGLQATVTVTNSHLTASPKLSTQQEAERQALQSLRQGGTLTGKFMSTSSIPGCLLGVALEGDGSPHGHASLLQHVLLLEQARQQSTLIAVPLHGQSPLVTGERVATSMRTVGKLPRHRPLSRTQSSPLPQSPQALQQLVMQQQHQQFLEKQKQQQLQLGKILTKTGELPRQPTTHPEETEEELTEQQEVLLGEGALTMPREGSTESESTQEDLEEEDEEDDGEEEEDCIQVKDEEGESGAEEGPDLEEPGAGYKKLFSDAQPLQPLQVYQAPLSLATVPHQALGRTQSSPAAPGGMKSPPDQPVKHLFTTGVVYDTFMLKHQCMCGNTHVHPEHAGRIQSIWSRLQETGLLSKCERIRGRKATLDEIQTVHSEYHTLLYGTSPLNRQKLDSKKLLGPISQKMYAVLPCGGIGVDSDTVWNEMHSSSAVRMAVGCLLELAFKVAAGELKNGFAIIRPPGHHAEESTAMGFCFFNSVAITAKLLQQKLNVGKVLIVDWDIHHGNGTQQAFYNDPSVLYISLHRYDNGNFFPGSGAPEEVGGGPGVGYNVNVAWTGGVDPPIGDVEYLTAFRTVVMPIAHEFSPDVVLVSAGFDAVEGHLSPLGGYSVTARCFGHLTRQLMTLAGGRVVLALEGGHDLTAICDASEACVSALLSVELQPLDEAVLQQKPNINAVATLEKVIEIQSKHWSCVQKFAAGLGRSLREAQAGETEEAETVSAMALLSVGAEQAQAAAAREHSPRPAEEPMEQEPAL

Histone deacetylase 9 = Histone deacetylase 9 (Homo sapiens, UniProt Q9UKV0); assay: Inhibition of HDAC9 (unknown origin)
Histone deacetylase 9, sequence (Q9UKV0 whole entry): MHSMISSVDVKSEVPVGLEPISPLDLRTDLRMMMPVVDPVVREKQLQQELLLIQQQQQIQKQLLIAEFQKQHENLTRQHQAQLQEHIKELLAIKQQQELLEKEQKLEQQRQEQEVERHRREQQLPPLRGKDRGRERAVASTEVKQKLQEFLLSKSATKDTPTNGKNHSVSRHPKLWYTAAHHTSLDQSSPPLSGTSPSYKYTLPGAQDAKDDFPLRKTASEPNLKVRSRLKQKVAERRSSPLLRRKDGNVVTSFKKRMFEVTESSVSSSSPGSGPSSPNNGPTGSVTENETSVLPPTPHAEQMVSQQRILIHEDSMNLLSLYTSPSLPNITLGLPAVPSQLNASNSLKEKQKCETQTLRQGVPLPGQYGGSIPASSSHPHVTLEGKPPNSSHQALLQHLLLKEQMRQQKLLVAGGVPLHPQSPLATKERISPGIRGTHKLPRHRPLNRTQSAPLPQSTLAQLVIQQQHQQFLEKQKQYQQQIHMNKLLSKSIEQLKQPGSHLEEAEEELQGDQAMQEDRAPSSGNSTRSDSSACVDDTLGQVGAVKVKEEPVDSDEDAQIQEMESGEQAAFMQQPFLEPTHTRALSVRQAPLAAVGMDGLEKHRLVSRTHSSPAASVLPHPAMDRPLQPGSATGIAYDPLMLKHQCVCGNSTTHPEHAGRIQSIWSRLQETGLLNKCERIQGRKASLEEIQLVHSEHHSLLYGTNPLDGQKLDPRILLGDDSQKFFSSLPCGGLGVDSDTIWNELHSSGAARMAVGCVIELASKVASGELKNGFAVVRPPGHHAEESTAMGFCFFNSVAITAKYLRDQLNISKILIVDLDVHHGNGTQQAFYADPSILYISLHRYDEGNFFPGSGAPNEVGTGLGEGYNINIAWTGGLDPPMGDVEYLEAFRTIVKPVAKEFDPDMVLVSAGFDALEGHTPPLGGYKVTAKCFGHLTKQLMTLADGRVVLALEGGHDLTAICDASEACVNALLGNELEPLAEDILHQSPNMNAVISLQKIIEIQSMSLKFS

Histone deacetylase 2 = Histone deacetylase 2 (Homo sapiens, UniProt Q92769); assay: Inhibition of HDAC2 (unknown origin)
Histone deacetylase 2, sequence (Q92769 whole entry): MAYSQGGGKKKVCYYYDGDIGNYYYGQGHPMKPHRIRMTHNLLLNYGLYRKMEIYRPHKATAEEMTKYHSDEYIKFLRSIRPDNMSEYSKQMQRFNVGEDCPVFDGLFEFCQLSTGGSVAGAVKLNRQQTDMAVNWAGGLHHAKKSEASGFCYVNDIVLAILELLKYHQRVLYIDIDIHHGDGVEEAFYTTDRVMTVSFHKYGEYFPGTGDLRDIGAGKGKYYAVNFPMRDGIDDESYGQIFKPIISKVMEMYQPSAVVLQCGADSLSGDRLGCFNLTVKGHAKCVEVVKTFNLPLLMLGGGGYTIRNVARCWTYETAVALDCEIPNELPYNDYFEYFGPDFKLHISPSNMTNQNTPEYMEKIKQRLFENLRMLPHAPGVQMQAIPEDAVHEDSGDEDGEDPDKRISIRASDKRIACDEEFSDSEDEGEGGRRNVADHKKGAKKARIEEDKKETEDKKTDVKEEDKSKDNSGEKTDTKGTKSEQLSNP

[4] = Drug concentration in C57BL/6 mouse plasma at 1 mg/kg, ip measured after 3 hrs by LC-MS/MS analysis; type: ADME, organism-based
Histone deacetylase 3 = Histone deacetylase 3 (Homo sapiens, UniProt O15379); assay: Inhibition of HDAC3 (unknown origin)
Histone deacetylase 3, sequence (O15379 whole entry): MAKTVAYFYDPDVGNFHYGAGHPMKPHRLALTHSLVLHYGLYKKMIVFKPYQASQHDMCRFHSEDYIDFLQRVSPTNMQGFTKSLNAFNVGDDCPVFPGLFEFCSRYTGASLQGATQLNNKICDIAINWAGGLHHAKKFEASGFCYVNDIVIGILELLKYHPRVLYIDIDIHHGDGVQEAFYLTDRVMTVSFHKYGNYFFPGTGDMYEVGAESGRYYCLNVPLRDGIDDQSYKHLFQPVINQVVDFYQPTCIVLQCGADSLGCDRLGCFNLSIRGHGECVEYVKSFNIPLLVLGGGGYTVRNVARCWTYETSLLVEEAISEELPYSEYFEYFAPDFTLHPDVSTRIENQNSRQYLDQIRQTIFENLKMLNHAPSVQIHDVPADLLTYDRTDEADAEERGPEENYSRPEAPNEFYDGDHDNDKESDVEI

[5] = Drug concentration in C57BL/6 mouse brain at 1 mg/kg, ip measured after 1 hr by LC-MS/MS analysis; type: ADME, organism-based; conditions: read-out: Ct
[6] = Drug concentration in C57BL/6 mouse plasma at 1 mg/kg, ip measured after 0.5 hrs by LC-MS/MS analysis; type: ADME, organism-based
Histone deacetylase 11 = target: T1, Histone deacetylase 11 (Homo sapiens, UniProt Q96DB2); assay: Inhibition of HDAC11 (unknown origin)
T1 sequence (Q96DB2 whole entry): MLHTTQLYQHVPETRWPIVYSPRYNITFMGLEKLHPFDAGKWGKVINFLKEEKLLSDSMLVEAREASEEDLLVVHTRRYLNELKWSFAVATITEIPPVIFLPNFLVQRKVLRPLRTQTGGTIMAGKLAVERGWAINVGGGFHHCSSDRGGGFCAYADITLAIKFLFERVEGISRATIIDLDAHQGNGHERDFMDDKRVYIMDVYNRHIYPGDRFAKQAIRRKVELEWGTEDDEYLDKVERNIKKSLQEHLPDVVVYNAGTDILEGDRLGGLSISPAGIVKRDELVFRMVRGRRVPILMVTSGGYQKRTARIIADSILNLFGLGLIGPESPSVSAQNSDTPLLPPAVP

[7] = target: T2, Polyamine deacetylase HDAC10 (Homo sapiens, UniProt Q969S8); assay: Inhibition of HDAC10 (unknown origin)
T2 sequence (Q969S8 whole entry): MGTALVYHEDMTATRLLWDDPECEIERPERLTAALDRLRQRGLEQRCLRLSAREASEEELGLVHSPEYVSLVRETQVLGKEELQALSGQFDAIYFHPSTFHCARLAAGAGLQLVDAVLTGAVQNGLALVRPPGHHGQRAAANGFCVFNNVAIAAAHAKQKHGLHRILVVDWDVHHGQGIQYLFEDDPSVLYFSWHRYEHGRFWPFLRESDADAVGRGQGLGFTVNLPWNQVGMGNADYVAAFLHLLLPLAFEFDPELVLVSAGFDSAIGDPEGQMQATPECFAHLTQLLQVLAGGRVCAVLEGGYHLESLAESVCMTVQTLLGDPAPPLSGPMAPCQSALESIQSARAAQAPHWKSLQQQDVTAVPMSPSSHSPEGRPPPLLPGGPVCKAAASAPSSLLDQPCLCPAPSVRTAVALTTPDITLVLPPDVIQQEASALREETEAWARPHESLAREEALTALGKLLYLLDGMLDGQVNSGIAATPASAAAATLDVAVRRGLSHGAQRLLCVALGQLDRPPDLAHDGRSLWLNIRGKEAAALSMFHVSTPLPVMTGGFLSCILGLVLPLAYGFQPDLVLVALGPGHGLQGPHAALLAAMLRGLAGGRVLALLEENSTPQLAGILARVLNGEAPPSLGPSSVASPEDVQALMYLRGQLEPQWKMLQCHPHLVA

[8] = Ratio of drug concentration in brain to plasma of C57BL/6 mouse plasma at 1 mg/kg, ip measured after 1 hr by LC-MS/MS analysis; type: ADME, organism-based; conditions: read-out: BPR
Histone deacetylase 8 = target: T3, Histone deacetylase 8 (Homo sapiens, UniProt Q9BY41); assay: Inhibition of HDAC8 (unknown origin)
T3 sequence (Q9BY41 whole entry): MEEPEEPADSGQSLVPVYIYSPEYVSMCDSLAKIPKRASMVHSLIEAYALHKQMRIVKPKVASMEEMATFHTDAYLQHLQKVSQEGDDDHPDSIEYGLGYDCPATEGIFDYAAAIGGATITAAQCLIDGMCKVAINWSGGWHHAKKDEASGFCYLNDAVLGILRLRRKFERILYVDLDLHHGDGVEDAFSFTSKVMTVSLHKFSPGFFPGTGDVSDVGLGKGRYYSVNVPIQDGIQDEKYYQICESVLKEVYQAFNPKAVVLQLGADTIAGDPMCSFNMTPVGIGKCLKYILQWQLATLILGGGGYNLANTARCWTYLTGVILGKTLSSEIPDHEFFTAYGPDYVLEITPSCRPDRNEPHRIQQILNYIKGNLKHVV

[9] = Ratio of drug concentration in brain to plasma of C57BL/6 mouse plasma at 1 mg/kg, ip measured after 0.5 hr by LC-MS/MS analysis; type: ADME, organism-based; conditions: read-out: BPR
[10] = Drug concentration in C57BL/6 mouse brain at 1 mg/kg, ip measured after 0.5 hrs by LC-MS/MS analysis; type: ADME, organism-based; conditions: read-out: Ct
[11] = target: T4, Protein deacetylase HDAC6 (Homo sapiens, UniProt Q9UBN7); assay: Inhibition of HDAC6 (unknown origin)
T4 sequence (Q9UBN7 whole entry): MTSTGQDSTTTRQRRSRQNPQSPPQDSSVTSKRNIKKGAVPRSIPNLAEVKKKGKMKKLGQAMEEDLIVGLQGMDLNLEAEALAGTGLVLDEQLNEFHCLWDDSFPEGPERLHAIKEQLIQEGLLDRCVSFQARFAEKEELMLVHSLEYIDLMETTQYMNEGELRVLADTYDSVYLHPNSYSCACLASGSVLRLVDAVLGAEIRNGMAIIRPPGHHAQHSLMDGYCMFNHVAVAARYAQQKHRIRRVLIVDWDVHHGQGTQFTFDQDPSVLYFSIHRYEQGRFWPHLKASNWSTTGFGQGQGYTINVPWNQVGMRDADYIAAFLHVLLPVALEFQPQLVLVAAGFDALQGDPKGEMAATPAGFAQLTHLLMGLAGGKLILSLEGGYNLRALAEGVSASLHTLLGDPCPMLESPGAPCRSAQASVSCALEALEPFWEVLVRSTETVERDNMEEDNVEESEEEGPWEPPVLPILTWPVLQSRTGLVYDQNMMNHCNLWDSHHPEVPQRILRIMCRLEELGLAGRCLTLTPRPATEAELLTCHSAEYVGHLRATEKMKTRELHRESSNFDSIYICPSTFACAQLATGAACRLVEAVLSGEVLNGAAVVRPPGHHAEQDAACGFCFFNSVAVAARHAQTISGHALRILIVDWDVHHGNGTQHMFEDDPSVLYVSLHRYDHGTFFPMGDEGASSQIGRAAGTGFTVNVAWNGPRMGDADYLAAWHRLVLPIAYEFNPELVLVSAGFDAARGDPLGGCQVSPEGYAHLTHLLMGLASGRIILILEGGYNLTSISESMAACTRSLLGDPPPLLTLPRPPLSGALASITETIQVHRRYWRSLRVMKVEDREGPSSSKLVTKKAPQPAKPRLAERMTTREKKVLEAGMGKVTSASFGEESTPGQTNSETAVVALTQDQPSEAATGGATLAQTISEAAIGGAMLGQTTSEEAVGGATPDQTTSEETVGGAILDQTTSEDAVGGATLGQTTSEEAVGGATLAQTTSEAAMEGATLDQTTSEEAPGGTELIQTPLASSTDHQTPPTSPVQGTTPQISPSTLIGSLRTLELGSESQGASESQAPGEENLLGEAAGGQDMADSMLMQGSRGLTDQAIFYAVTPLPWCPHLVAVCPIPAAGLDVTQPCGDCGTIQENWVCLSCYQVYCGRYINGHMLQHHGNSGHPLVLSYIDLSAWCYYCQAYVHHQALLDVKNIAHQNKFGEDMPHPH

Histone deacetylase 1 = Histone deacetylase 1 (Homo sapiens, UniProt Q13547); assay: Inhibition of HDAC1 (unknown origin)
Histone deacetylase 1, sequence (Q13547 whole entry): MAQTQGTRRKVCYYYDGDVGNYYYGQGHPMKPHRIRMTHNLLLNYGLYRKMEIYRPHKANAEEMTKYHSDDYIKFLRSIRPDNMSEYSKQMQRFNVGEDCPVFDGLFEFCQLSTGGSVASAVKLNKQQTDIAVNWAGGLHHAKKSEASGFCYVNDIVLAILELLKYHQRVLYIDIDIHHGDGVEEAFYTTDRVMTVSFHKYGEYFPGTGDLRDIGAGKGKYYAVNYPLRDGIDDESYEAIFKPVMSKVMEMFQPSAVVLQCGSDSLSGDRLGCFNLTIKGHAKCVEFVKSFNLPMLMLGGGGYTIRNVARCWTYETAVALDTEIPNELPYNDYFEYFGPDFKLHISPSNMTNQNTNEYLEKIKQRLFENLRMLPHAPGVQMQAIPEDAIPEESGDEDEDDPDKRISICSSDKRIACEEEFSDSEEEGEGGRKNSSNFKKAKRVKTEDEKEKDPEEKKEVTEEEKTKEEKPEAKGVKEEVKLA

[12] = Drug uptake in mouse brain at 3 mg/kg measured at upto 60 mins by PET imaging based analysis; type: ADME, organism-based; conditions: in vivo, 1 h
[13] = Drug accumulation in mouse heart measured after 5 mins post injection; type: ADME, tissue-based; conditions: in vivo
[14] = Drug accumulation in mouse kidney measured after 60 mins post injection; type: ADME, tissue-based; conditions: in vivo, 1 h
[15] = Drug accumulation in mouse spleen measured after 5 mins post injection; type: ADME, tissue-based; conditions: in vivo
[16] = Drug accumulation in mouse liver measured after 5 mins post injection; type: ADME, tissue-based; conditions: in vivo
[17] = Drug accumulation in mouse lung measured after 5 mins post injection; type: ADME, tissue-based; conditions: in vivo
[18] = Drug accumulation in mouse liver measured after 60 mins post injection; type: ADME, tissue-based; conditions: in vivo, 1 h
[19] = Drug accumulation in mouse kidney measured after 5 mins post injection; type: ADME, tissue-based; conditions: in vivo

O=C(NO)c1ccc(CN2CCCc3cccnc32)c(F)c1
Kp at 3 h [1]: 1.3
concentration at 3 h [2]: 1.07 ng/mL
IC50 (Histone deacetylase 4): 0.578 µM
Activity (BV-2): Non-Toxic
concentration at 1 h [3]: 4.32 ng/mL
IC50 (Histone deacetylase 5): 1.85 µM
IC50 (Histone deacetylase 9): 0.701 µM
IC50 (Histone deacetylase 2): > 10 µM
concentration at 3 h [4]: 0.82 ng/mL
IC50 (Histone deacetylase 3): 0.568 µM
concentration at 1 h [5]: 6.48 ng/mL
concentration at 0.5 h [6]: 6.21 ng/mL
IC50 (Histone deacetylase 11): 8.61 µM
IC50 [7]: 0.269 µM
Kp at 1 h [8]: 1.5
IC50 (Histone deacetylase 8): 0.597 µM
Kp at 0.5 h [9]: 2.1
concentration at 0.5 h [10]: 13.2 ng/mL

O=C(NO)c1ccc(CNC2CCCc3cccnc32)c(F)c1 (stereo unspecified)
IC50 [11]: 0.063 µM
IC50 (Histone deacetylase 1): 5.05 µM

O=C(NO)c1ccc(CN2CCCc3cccnc32)c([18F])c1
SUV [12]: 0.6
Drug uptake [13]: > 10 %ID/cc
Drug uptake [14]: Active
Drug uptake [15]: Active
Drug uptake [16]: > 10 %ID/cc
Drug uptake [17]: Active
Drug uptake [18]: Active
Drug uptake [19]: > 10 %ID/cc

O=C(NO)c1ccc(CNc2cccc3ccc([18F])nc23)cc1
SUV [12]: 0.35

O=C(NO)c1ccc(CNC2CCCc3cccnc32)cc1 (stereo unspecified)
IC50 [11]: 0.0861 µM
IC50 (Histone deacetylase 1): 4.71 µM
